Data reported in the supplement of paper PMC10307832.

Compound: O=C(NCCCNc1nc(Nc2cccc(NC(=O)N3CCCC3)c2)ncc1I)c1cccs1 [BX 795]
Test: relative viability (nuclei count vs DMSO), 5 days (fraction); higher = more cells survive
In short: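 Hoechst staining, done together with fixation and permeabilisation, marked nuclei for 4× imaging and MetaXpress counting. This followed 5 days without medium change after lung cancer cell lines, kept overnight at 37 °C in 1536-well plates, were pinned with five library-drug doses (not always all listed) spaced by √10 on vehicle-anchored plates. Viability is the ratio of treated-well to vehicle-well nuclei, expressed as a median across plates. Plates passed only at control CV below 25% with at least one doubling.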

Cell Line | relative viability (0.04 µM) | relative viability (0.1265 µM) | relative viability (0.4 µM) | relative viability (1.265 µM)
HCC-44 | 0.908 | 0.967 | 1.07 | 1.06
EPLC-272H | 1.01 | 0.899 | 0.885 | 0.748
NCI-H3122 | 0.981 | 1.01 | 1.04 | 1.06
NCI-H727 | 1.01 | 0.899 | 0.978 | 1
NCI-H1944 | 1.06 | 0.996 | 1.16 | 0.958
NCI-H2228 | 1.07 | 1.21 | 1.04 | 0.871
NCI-H520 | 0.99 | 1.04 | 0.869 | 0.733
201T | 0.983 | 0.996 | 1.07 | 1.04
NCI-H441 | 1.39 | 1.24 | 1.48 | 0.802
HCC-366 | 1.02 | 1.02 | 0.944 | 0.945
LXF-289 | 0.962 | 1 | 1.02 | 0.9
NCI-H2023 | 0.906 | 0.904 | 0.571 | 0.6
NCI-H2347 | 1.14 | 1.01 | 1.28 | 0.935
ABC-1 | 0.888 | 0.797 | 0.917 | 0.906
LCLC-103H | 1.02 | 1.01 | 0.937 | 0.985
NCI-H1650 | 0.915 | 1.05 | 0.8 | 0.778
NCI-H1792 | 0.93 | 0.818 | 1.12 | 0.867
SW 1573 | 0.918 | 0.984 | 1.1 | 0.651
NCI-H2170 | 0.955 | 0.951 | 0.958 | 0.942

Cell Line | relative viability (0.04 µM) | relative viability (0.1265 µM) | relative viability (0.4 µM) | relative viability (1.265 µM)
NCI-H647 | 0.81 | 1.02 | 0.891 | 0.82
NCI-H2126 | 1.01 | 1.02 | 1.1 | 0.983
LOU-NH91 | 1.01 | 0.967 | 0.982 | 0.961
NCI-H1755 | 1.05 | 1.03 | 0.972 | 0.881
NCI-H2342 | 1.03 | 0.939 | 0.924 | 0.978
NCI-H1651 | 1.04 | 1.04 | 0.993 | 1
CAL-12T | 0.949 | 0.992 | 0.882 | 0.623
NCI-H460 | 0.995 | 1.08 | 0.991 | 0.954
SK-MES-1 | 1.06 | 0.979 | 0.932 | 0.761
NCI-H2087 | 1.07 | 1.14 | 1.15 | 0.941
NCI-H838 | 0.892 | 0.993 | 0.79 | 0.614
NCI-H23 | 1.07 | 0.952 | 0.896 | 0.769
NCI-H1915 | 1.03 | 0.974 | 0.955 | 0.903
HOP-62 | 0.963 | 1.06 | 1.21 | 1
PC-14 | 0.948 | 0.997 | 0.944 | 0.719
EMC-BAC-2 | 0.978 | 0.843 | 0.951 | 0.633
NCI-H596 | 1.05 | 1.04 | 1 | 0.933
NCI-H650 | 0.933 | 1.02 | 0.954 | 0.805
